{"source": "patent US9884012B2", "about": "“Use of PEDF-derived polypeptides for promoting muscle or tendon regeneration or arteriogenesis” (MacKay Memorial Hospital, priority 2012, dated 2018)", "key": {"[1]": {"assay": "in vitro release of PEDF peptides from alginate gel in PBS", "assay_type": "physicochemical", "conditions": "PBS pH 7.4, 37° C.; for peptide remained in the alginate gel matrix: after 24 hours, FITC-conjugated peptide in alginate hydrogel", "procedure": "Each PEDF-derived short synthetic peptide (the 29-mer, 25-mer, 24-mer, 20-mer, 18-mer, MO 29-mer, or MO 20-mer; hereinbelow, PEDF peptide) was reconstituted in DMSO as stock (5 mM). Then, ultrapure alginate was mixed with the stock to obtain a 2% wt/vol alginate solution with PEDF peptide at a final concentration of 10 μM. The alginate solution was then filtered by membrane filter (pore size, 0.22 μm) and mixed with filtered calcium sulfate (0.21 g CaSO4/mL of dH2O) at a ratio of 25:1 (40 μL of CaSO4 per 1 mL of the filtered alginate solution). The mixture was let standing at RT for about 1 hour to allow for the cross-linking of the alginate. The resultant sustained-release formulation was then used in the treatment of muscle or tendon damage and ischemia.\nTo determine the release kinetics of 29-mer and 20mer, 100 μg of FITC-conjugated PEDF peptide was mixed with 100 μL alginate solution, and then hydrogels were prepared as set forth in the “Materials and Methods” section. Thereafter, 100 mg hydrogel was incubated in 1.5 ml of PBS (pH 7.4) in microcentrifuge tube and placed in an orbital shaking incubator over a 6-day period at 37° C. The tube was centrifuged at each predetermined time point and then 200 μL of supernatant was removed and stored at −80° C. for further analysis, and 200 μL of fresh PBS was added to the tube to replace the supernatant withdrawn. The concentration of FITC-conjugated PEDF peptide present in the collected supernatants was determined using a fluorimeter in 96-well format. A known non-encapsulated FITC-peptide was used to generate a standard curve. Triplicate data were used for analysis."}, "[2]": {"test_system": "soleus muscle (muscle fibers, satellite cells)", "assay": "bupivacaine myonecrosis model, BrdU and Pax7 labeling of soleus muscle", "assay_type": "in vivo, Sprague-Dawley rats", "conditions": "soleus muscle after bupivacaine injection; for BrdU Labeling Index (%): 50 μl sustained-release formulation (Bolus: bolus 29-mer), single intramuscular injection; for Pax7 Labeling Index (%): sustained-release formulation (Bolus: bolus 29-mer)", "procedure": "De-paraffinized tissue sections were blocked with 10% goat serum for 1 hour. Staining was done using primary antibodies against BrdU (1:50 dilution; GTX42641) or type I collagen 1A1 (1:50 dilution) overnight at 4° C., followed by incubation with the appropriate peroxidase-labeled donkey immunoglobulin for 30 min and then with chromogen substrate (3,3′-diaminobenzidine) for 2 min before counterstaining with hematoxylin. Quantification was estimated based on high quality images (1208×960 pixels) captured using a Nikon Eclipse 80i light microscope.\nFor the detection of cell expansion, BrdU was reconstituted in DMSO as stock (80 mM). 10 μl of BrdU mixed with 90 μl of PBS was intraperitoneally injected into the mouse 16 hours prior to euthanasia. Also, 150 μl of BrdU mixed with 350 μl of PBS was intraperitoneally injected into the rat 16 hours prior to euthanasia. DNA synthesis was assessed by BrdU labeling with anti-BrdU antibodies.\nDe-paraffinized tissue sections or 4% paraformaldehyde fixed rabbit tendon stem cells (TSCs) were blocked with 10% goat serum and 5% BSA for 1 hour. Double staining was done using primary antibodies against α-SMA (1:100 dilution), IB4 (5 μg/ml), Pax7 (1:100 dilution), nucleostemin (1:100 dilution) and type I collagen 1A1 (1:50) at 37° C. for 2 hours, followed by incubation with the appropriate rhodamine- or FITC-conjugated donkey IgG for 1 hour at RT. Nuclei were located by counterstaining with Hoechst 33258 for 7 minutes. Images were captured using a Zeiss epifluorescence microscope with a CCD camera.\n(§1) To investigate the effects of the present PEDF peptides on muscle regeneration, a rat myonecrosis model of a single injection of bupivacaine into the soleus muscle was employed. Adult 10-week-old male Sprague-Dawley rats (initial body weight=312±11 g) were anesthetized by an intraperitoneal injection of a xylazine (10 mg/kg). Then, the soleus muscle was injured by unilaterally injecting 0.5 ml bupivacaine (AstraZeneca) with a disposable syringe with a 26-gauge needle. Briefly, the needle was inserted into the distal portion of the soleus muscle and then receded longitudinally to the proximal portion accompanying evenly bupivacaine solution injection. The solution was then injected throughout the entire length of the muscle as the needle was slowly withdrawn.\nAfter bupivacaine injection, rats were divided equally (n=10/group) into four experimental groups and treated as follows. […]\nMuscle regeneration involves proliferation of muscle fibers, or muscle cells. […] Detailed assay procedures are as described in “Materials and Methods.” The level of BrdU-positive cells was expressed as labeling index (%), which was computed as the number of labeled cells divided by the total number of cells. […]"}, "[3]": {"test_system": "soleus muscle", "assay": "bupivacaine myonecrosis model, muscle fiber size (minimal Feret's diameter)", "assay_type": "in vivo, Sprague-Dawley rats", "conditions": "14 days after injury; for diameters of muscle fibers on average versus blank or bolus control group: in words", "procedure": "The muscle fiber size was determined on H&E-stained muscle cross section and quantified using the minimum distance of parallel tangents at opposing particle borders (minimal “Feret's diameter”). Pictures were captured using a Nikon Eclipse 80i light microscope, and the minimal Feret's diameter was measured using the Image-Pro Plus 4.5.1 software (Media Cybernetics). Normalization of the number of fibers in each fiber Feret class of 5 μm was based on the total number of muscle fibers in each picture.\nas §1\nAfter bupivacaine injection, rats were divided equally (n=10/group) into four experimental groups and treated as follows. In the blank control group, the mice were treated with 50 μl of blank alginate gel. In the treatments groups, the mice received 50 μl of the sustained-release formulation (29-mer or 20-mer). The mice in the bolus control group received the bolus formulation (29-mer). Treatments were applied by way of a single intramuscular injection to the soleus muscle immediately after the bupivacaine perfusion.\nIn the later stage of muscle regeneration, newly generated muscle fibers start to gain size. Muscle specimens were collected at 14 days after injury, and respective fiber diameters were measured in accordance with the procedure set forth in the section of “Materials and Methods.” Results were summarized in FIG. 9."}}}
{"sequence": "SLGAEQRTESIIHRALYYDL [20-mer, synthetic peptide corresponding to residues 93-112 of human PEDF]", "values": [{"measurement": "peptide remained in the alginate gel matrix", "setting": "[1]", "value": "~35", "unit": "%"}, {"measurement": "peptide released from alginate gel", "setting": "[1]; in the first 3 days", "value": "about 90%"}, {"measurement": "BrdU Labeling Index (%)", "setting": "[2]", "value": "13.6 ± 3.0", "unit": "%"}, {"measurement": "Pax7 Labeling Index (%)", "setting": "[2]", "value": "14.6 ± 1.9", "unit": "%"}, {"measurement": "diameters of muscle fibers on average versus blank or bolus control group", "setting": "[3]", "value": "larger"}, {"measurement": "muscle fibers with a minimal Feret's diameter between 15-25 μm", "setting": "[3]; sustained-release formulation", "value": "about 56.6%"}]}
{"sequence": "SLGAEQRTESIIHRALYYDLISSPDIHGT [29-mer, synthetic peptide corresponding to residues 93-121 of human PEDF]", "values": [{"measurement": "peptide remained in the alginate gel matrix", "setting": "[1]", "value": "approximately 48%"}, {"measurement": "peptide released from alginate gel", "setting": "[1]; within the first 4 days", "value": 90, "unit": "%"}, {"measurement": "BrdU Labeling Index (%)", "setting": "[2]", "value": "15.4 ± 1.7", "unit": "%"}, {"measurement": "Pax7 Labeling Index (%)", "setting": "[2]", "value": "16.2 ± 2.0", "unit": "%"}, {"measurement": "diameters of muscle fibers on average versus blank or bolus control group", "setting": "[3]", "value": "larger"}]}
